Measured values: ChEMBL document CHEMBL2203118, “Ethyl 2,4,6-trihydroxybenzoate is an agonistic ligand for liver X receptor that induces cholesterol efflux from macrophages without affecting lipid accumulation in HepG2 cells” (Bioorg Med Chem Lett, 2012)
The source made the active and inactive calls. The calls are words filed in the database; no cut-off is given here.

Tests used:
[1] = target: T1, Liver X receptor (Homo sapiens) (UniProt Q13133+P55055); assay: Agonist activity at LXR in human THP1 cells assessed as induction of ABCG1 gene expression at 100 uM after 48 hrs by immunoblot analysis relative to control; format: functional, cell-based; details: THP-1
T1 sequence (P55055 whole entry, looked up, one chain of several): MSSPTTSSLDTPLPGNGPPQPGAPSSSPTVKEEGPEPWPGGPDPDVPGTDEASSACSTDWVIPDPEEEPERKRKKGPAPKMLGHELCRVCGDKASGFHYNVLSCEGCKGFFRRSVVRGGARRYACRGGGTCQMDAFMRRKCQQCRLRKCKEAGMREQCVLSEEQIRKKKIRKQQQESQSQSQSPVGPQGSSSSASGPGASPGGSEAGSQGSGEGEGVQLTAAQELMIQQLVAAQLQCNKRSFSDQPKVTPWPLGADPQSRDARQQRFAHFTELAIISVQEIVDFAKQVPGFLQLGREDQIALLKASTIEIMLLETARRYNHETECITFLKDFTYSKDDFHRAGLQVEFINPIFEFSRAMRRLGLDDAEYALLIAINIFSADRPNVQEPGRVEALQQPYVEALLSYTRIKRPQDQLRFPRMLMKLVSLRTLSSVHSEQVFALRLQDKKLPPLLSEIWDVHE

HepG2 [2] = assay: Induction of lipid accumulation in human HepG2 cells assessed as increase in cellular triglyceride level by Dil staining relative to control; format: cell-based
[3] = target: T2, Oxysterols receptor LXR-alpha (Homo sapiens) (UniProt Q13133); assay: Agonist activity at LXR-alpha in human THP1 cells assessed as reduced cellular cholesterol concentration; format: functional, cell-based; details: THP-1
T2 sequence (whole entry): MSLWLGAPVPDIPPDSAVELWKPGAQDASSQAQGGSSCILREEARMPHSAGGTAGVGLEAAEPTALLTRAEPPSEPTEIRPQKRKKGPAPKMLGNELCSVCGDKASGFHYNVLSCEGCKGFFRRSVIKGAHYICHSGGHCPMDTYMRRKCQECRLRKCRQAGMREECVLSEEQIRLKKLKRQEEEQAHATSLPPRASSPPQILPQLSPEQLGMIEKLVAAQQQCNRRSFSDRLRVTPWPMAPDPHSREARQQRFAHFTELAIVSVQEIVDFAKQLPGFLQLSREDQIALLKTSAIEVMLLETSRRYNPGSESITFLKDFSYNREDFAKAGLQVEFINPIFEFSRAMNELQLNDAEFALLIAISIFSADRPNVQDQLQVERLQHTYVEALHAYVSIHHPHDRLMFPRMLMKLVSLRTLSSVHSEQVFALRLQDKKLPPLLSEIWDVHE

HepG2 [4] = assay: Upregulation of ACOX gene expression in human HepG2 at 100 uM by qPCR analysis relative to control; format: functional, cell-based
HepG2 [5] = assay: Upregulation of CPT-1 gene expression in human HepG2 at 100 uM by qPCR analysis relative to control; format: functional, cell-based
HepG2 [6] = assay: Upregulation of SREBP-1 gene expression in human HepG2 cells at 50 to 100 uM by immunoblot analysis; format: ADME, cell-based; details: hepg2, 100 µM
HepG2 [7] = assay: Upregulation of FAS gene expression in human HepG2 cells at 50 to 100 uM by qPCR analysis; format: ADME, cell-based; details: hepg2, 100 µM
HepG2 [8] = assay: Upregulation of SREBP-1 gene expression in human HepG2 cells at 50 to 100 uM by qPCR analysis relative to control relative to control; format: ADME, cell-based; details: hepg2, 100 µM
HepG2 [9] = assay: Reduction in SCD-1 gene expression in human HepG2 cells at 100 uM by qPCR analysis relative to control; format: functional; parameters: scale not given: the % may be the effect or the level left
HepG2 [10] = assay: Reduction in SCD-1 gene expression in human HepG2 cells at 50 uM by qPCR analysis relative to control; format: functional; parameters: scale not given: the % may be the effect or the level left
HepG2 [11] = assay: Induction of lipid accumulation in human HepG2 cells assessed as increase in cellular triglyceride level at 50 to 100 uM by Oil Red O staining relative to control; format: cell-based; details: hepg2, 100 µM
HepG2 [12] = assay: Induction of lipid accumulation in human HepG2 cells assessed as cellular triglyceride concentration at 50 to 100 uM; format: cell-based; details: hepg2, 100 µM
[13] = target: T1, Liver X receptor (Homo sapiens); assay: Agonist activity at LXR in human Caco2 cells assessed as decrease in NPC1L1 mRNA level at 100 uM after 48 hrs by qPCR analysis relative to control; format: functional, cell-based; parameters: scale not given: the % may be the effect or the level left; details: Caco-2
[14] = target: T1, Liver X receptor (Homo sapiens); assay: Agonist activity at LXR in human Caco2 cells assessed as increase in ABCG8 mRNA level at 100 uM after 48 hrs by qPCR analysis relative to control; format: functional, cell-based; details: Caco-2
[15] = target: T1, Liver X receptor (Homo sapiens); assay: Agonist activity at LXR in human Caco2 cells assessed as increase in ABCG5 mRNA level at 100 uM after 48 hrs by qPCR analysis relative to control; format: functional, cell-based; details: Caco-2
[16] = target: T1, Liver X receptor (Homo sapiens); assay: Agonist activity at LXR in human Caco2 cells assessed as increase in ABCA1 mRNA level at 100 uM after 48 hrs by qPCR analysis relative to control; format: functional, cell-based; details: Caco-2
[17] = target: T1, Liver X receptor (Homo sapiens); assay: Agonist activity at LXR in human THP1 cells assessed as increase in ApoE mRNA level at 100 uM after 48 hrs by qPCR analysis relative to control; format: functional, cell-based; details: THP-1
[18] = Agonist activity at LXR in mouse RAW 264.7 assessed as increase in ABCG1mRNA level at 100 uM after 48 hrs by qPCR analysis relative to control; format: functional
[19] = target: T1, Liver X receptor (Homo sapiens); assay: Agonist activity at LXR in human THP1 monocytes assessed as increase in ABCG1 mRNA level at 100 uM after 48 hrs by qPCR analysis relative to control; format: functional, cell-based
[20] = Agonist activity at LXR in mouse RAW 264.7 assessed as induction of ABCA1 mRNA expression at 100 uM after 48 hrs by qPCR analysis relative to control; format: functional
[21] = target: T1, Liver X receptor (Homo sapiens); assay: Agonist activity at LXR in human THP1 cells assessed as induction of ABCA1 mRNA expression at 100 uM after 48 hrs by qPCR analysis relative to control; format: functional, cell-based; details: THP-1

Activity [1]: Active
Activity [3]: Dose-dependent effect
Activity [13]: 33.2%
fold change (FC) [14]: 1.5
fold change (FC) [15]: 12.6
fold change (FC) [16]: 2.1
fold change (FC) [17]: 1.9
fold change (FC) [19]: 5.2
fold change (FC) [21]: 7.4
Structure (SMILES): CCOC(=O)c1c(O)cc(O)cc1O
Activity (HepG2 [2]): Non-toxic
Activity (HepG2 [4]): Active
Activity (HepG2 [5]): Active
Activity (HepG2 [6]): Non-toxic
Activity (HepG2 [7]): Non-toxic
Activity (HepG2 [8]): Non-toxic
Activity (HepG2 [9]): 54.09%
Activity (HepG2 [10]): 47.6%
Activity (HepG2 [11]): Non-toxic
Activity (HepG2 [12]): Non-toxic
fold change (FC) [18]: 2.9
fold change (FC) [20]: 2.1
